US20070111118A1, “Electrophotographic photoconductor and image-forming apparatus” (priority 2005, published 2007)

assay: Solubility of the hole-transfer agent in triglyceride oleate; assay type: physicochemical; conditions: 25° C., g per 100 g of triglyceride oleate
Description: Here, the term “solubility in triglyceride oleate (% by weight)” means the amount of a solvent (hole-transfer agent) (g) with reference to 100 g of triglyceride oleate.

| Compound | HTM Solubility [w %] |
| --- | --- |
| CC(C)c1ccc(N(c2ccccc2)c2cccc(N(c3ccccc3)c3ccc(C(C)C)cc3)c2)cc1 [HTM-1] | 11.1 |
| CCc1cccc(C)c1N(c1ccccc1)c1ccc(/C=C/c2ccc(/C=C/c3ccc(N(c4ccccc4)c4c(C)cccc4CC)cc3)cc2)cc1 [HTM-8] | 2.1 |
| Cc1ccccc1N(c1ccc(-c2ccc(N(c3ccccc3C)c3ccccc3/C=C/c3ccccc3)cc2)cc1)c1ccccc1/C=C/c1ccccc1 [HTM-9] | 37.0 |
| CCCCc1ccc(N(c2ccc(C)cc2)c2c(N(c3ccc(C)cc3)c3ccc(CCCC)cc3)c3ccccc3c3ccccc23)cc1 [HTM-10] | 2.8 |
